The text below walks through data of patent publication US20240018102A1, “COMPOUNDS AND COMPOSITIONS FOR TREATING CONDITIONS ASSOCIATED WITH LPA RECEPTOR ACTIVITY” (Lhotse Bio, Inc., priority 2020, published 2024).

The structures appear in SMILES notation. Where only a bound is given, the exact number is not on record here.

This assay deals with T1, human LPA1 (Homo sapiens, UniProt Q92633).
T1 construct: expressed in transfected cells; host or cells: CHO-K1
Nature of the assay: In vitro LPA1 calcium flux antagonist assay, Bioduro protocol. The format is cell-based. As to conditions: CHO-K1 cells overexpressing human LPA1 and G15a; LPA challenge at EC80; calcium mobilization on FLIPR Tetra; read-out: IC50 (nM) in Assay B2. On the procedure:
In Vitro LPA1 Calcium Flux Antagonist Assay Bioduro Protocol
CHO-K1 cells overexpressing human LPA1 and G15a were seeded at a total volume of 20 uL (15000 cells/well) into Matrigel pre-coated 384-well plates (coming -3764) and incubated at 37° C. After overnight incubation, the cells were serum starved for 4 h. Assays were performed in dye loading buffer containing 1× Fluo-8 AM (AAT Bioquest, 21080) and 2.5 mM probenecid (Thermo Fisher, 36400) in HBSS/20 mM Hepes. After cell starvation, the medium was replaced with 20 uL of dye loading buffer and incubated at 37° C. for 30 min. Then 5 uL of 5× compound titrated in dye loading buffer was added to the cells and incubated for 30 min followed by LPA challenge at EC80. Calcium mobilization was measured on a FLIPR Tetra (MDS). For LPA EC80 determination, starved cells were incubated with 20 uL of dye loading buffer for 1 h, then 5 uL of 5×LPA titrated in dye loading buffer was added to the cells. Calcium signals induced by LPA was monitors on a FLIPR.
Percentage inhibition is calculated using the following formula:
% Inhibition=100%×(1−(mean RFU of test sample−mean RFU of DMSO)/(mean RFU of LPA control−mean RFU of DMSO)).

T1 sequence (Q92633 whole entry): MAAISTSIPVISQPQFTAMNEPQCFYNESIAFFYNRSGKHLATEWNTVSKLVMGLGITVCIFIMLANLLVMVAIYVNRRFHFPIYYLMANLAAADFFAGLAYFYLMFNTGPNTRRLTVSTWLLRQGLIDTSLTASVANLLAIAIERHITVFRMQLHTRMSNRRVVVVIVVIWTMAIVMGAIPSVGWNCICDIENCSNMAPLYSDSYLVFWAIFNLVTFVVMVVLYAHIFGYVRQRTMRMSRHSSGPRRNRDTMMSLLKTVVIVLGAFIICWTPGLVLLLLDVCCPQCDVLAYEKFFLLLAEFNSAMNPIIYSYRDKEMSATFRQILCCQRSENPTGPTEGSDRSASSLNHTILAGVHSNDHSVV

For `COc1cc([C@@H](O)[C@H](Cn2cc3nc(Cl)cc(C(=O)O)c3n2)OC2CCCC2)cc(OC)c1C` [Compound 198], the half-maximal inhibitory concentration (IC50) was determined as 6.87 nM.
As for `COc1cc([C@@H](O)[C@H](Cc2cn3cccc(C(=O)O)c3n2)OC2CCCC2)cc(OC)c1C` [Compound 248], the IC50 was ≥ 10000 nM.
To `COc1cc([C@@H](O)[C@H](Cn2cc3cc(C#N)cc(C(=O)O)c3n2)OCC(C)C)cc(OC)c1C` [Compound 232] belongs 27.2 nM.
To `CCc1sc(C[C@H](OC2CCCC2)[C@H](O)c2cc(OC)c(C)c(OC)c2)nc1CC(=O)O` [Compound 178] belongs 73.8 nM; to `COc1cc([C@@H](O)[C@H](Cn2cc3cc(C(F)F)cc(C(=O)O)c3n2)OC2CCCC2)cc(OC)c1C` [Compound 162], 3.93 nM.
The figure for `COc1cc([C@@H](O)[C@H](Cn2cc3nccc(C(=O)O)c3n2)OCCc2ccccc2)cc(OC)c1C` [Compound 184] is 24 nM; for `COc1cc([C@@H](O)[C@H](Cn2cc3nccc(C(=O)O)c3n2)OC2Cc3ccccc3C2)cc(OC)c1C` [Compound 185] it is 15 nM.
In the case of `COc1cc([C@@H](O)[C@H](Cn2cc3nccc(C(=O)O)c3n2)OC2CCCC2)c(F)cc1C` [Compound 190], the IC50 stood at 1530 nM.
Take `COc1cc(C(=O)O)c2nc(C[C@H](OC3Cc4ccccc4C3)[C@H](O)c3cc(OC)c(C)c(OC)c3)sc2c1` [Compound 274]: the IC50 was 3.71 nM.
As for `COc1cc([C@@H](O)[C@H](Cn2cc3cc(C4CC4)nc(C(=O)O)c3n2)OC2CCCC2)cc(OC)c1C` [Compound 231], the IC50 was found to be 11.1 nM.
The figure for `COc1cc([C@@H](O)[C@H](Cn2nnc3c(C(=O)O)cccc32)OC2CCCC2)cc(OC)c1C` [Compound 213] is ≥ 10000 nM; for `COc1cc([C@@H](O)[C@H](Cn2cc3nccc(C(=O)O)c3n2)OCC(C)C)cc(OC)c1C` [Compound 211] it is 459 nM.
To `COc1cc([C@@H](O)[C@H](Cn2cc3c(C(F)(F)F)ccc(C(=O)O)c3n2)OC2CCCC2)cc(OC)c1C` [Compound 186] belongs 7640 nM; to `CCOc1cc([C@@H](O)[C@H](Cn2cc3nccc(C(=O)O)c3n2)OC2CCCC2)cc(OCC)c1C` [Compound 203], 530 nM.
In the case of `CCCCc1sc(C[C@H](OC2CCCC2)[C@H](O)c2cc(OC)c(C)c(OC)c2)nc1CC(=O)O` [Compound 259], the IC50 turned out to be 31.9 nM.
The figure for `COc1cc([C@@H](O)[C@H](Cn2cc3nccc(C(=O)O)c3n2)OC2CCCC2)c(Cl)cc1C` [Compound 201] is 938 nM; for `COc1cc(C(=O)O)c2nc(C[C@H](OC3CCCC3)[C@H](O)c3cc(OC)c(C)c(OC)c3)sc2c1` [Compound 247] it is 1.93 nM; for `COc1cc([C@@H](O)[C@H](Cn2cc3cccc(C(=O)O)c3n2)OC2CCCCC2)ccc1C(F)F` [Compound 148] it is 525 nM.
`COc1cc([C@@H](O)[C@H](Cn2cc3nc(C4CC4)cc(C(=O)O)c3n2)OC2CCCC2)cc(OC)c1C` [Compound 196]: the IC50 was found to be 16.3 nM.
Regarding `COc1cc([C@@H](O)[C@H](Cn2nnc3cccc(C(=O)O)c32)OC2CCCC2)cc(OC)c1C` (racemic) [Compound 209], the IC50 was 812 nM.
Regarding `COc1cc([C@@H](O)[C@H](Cc2cc3cc(C4CC4)cc(C(=O)O)n3n2)OCC(C)C)cc(OC)c1C` [Compound 242], the IC50 is 7.5 nM.
The figure for `COc1cc([C@@H](O)[C@H](Cn2cc3cc(C)cc(C(=O)O)c3n2)OC2CCCC2)cc(OC)c1C` [Compound 161] is 6.28 nM; for `COc1cc([C@@H](O)[C@H](Cc2nc3c(C(=O)O)cc(F)cc3s2)OCC(C)C)cc(OC)c1C` [Compound 262] it is 15.8 nM.
The figure for `COc1cc([C@@H](O)[C@H](Cn2cc3ccc(F)c(C(=O)O)c3n2)OC2CCCC2)cc(OC)c1C` [Compound 155] is 308 nM.
The figure for `COc1cc([C@@H](O)[C@H](Cn2cc3ccnc(C(=O)O)c3n2)OC2CCCC2)cc(OC)c1C` [Compound 158] is 55.8 nM; for `COc1cc([C@@H](O)[C@H](Cc2nc(C(C)C(=O)O)c(C3CC3)s2)OC2CCCC2)cc(OC)c1C` (stereo partly drawn) [Compound 268] it is 52 nM; for `CCOc1cc(C(=O)O)c2nc(C[C@H](OC3CCCC3)[C@H](O)c3cc(OC)c(C)c(OC)c3)sc2c1` [Compound 275] it is 1.65 nM.
Regarding `COc1cc(C(=O)O)c2nc(C[C@H](OCC(C)C)[C@H](O)c3cc(OC)c(C)c(OC)c3)sc2c1` [Compound 236], the IC50 came to 9.18 nM.
Regarding `COc1cc([C@@H](O)[C@H](Cc2cc3cc(C4CC4)cc(C(=O)O)n3n2)OC2CCCC2)cc(OC)c1C` [Compound 229], the IC50 came out at 7.26 nM.
To `COc1cc([C@@H](O)[C@H](Cn2cc3c(F)ccc(C(=O)O)c3n2)OC2CCCC2)cc(OC)c1C` [Compound 153] belongs 5.42 nM; to `CCOc1cc([C@@H](O)[C@H](Cn2cc3cncc(C(=O)O)c3n2)OC2CCCC2)cc(OCC)n1` [Compound 208], ≥ 10000 nM; to `COc1cc([C@@H](O)[C@H](Cc2nc3c(C(=O)O)cccc3s2)OC2CCCC2)cc(OC)c1C` [Compound 157, 2-((2S,3R)-2-(cyclopentyloxy)-3-(3,5-dimethoxy-4-methylphenyl)-3-hydroxypropyl)benzo[d]thiazole-4-carboxylic acid], 6.3 nM.
For `COc1cc([C@@H](O)[C@H](Cn2cc3cc(C4CC4)cc(C(=O)O)c3n2)OC2CCCC2)cc(OC)c1C` [Compound 166], the IC50 is 4.94 nM.
To `COc1cc(C(=O)O)n2nc(C[C@H](OC3CCCC3)[C@H](O)c3cc(OC)c(C)cc3C)cc2c1` [Compound 238] belongs 53.3 nM; to `COc1cc([C@@H](O)[C@H](Cn2cc3cccc(C(=O)O)c3n2)OC2CCC(F)(F)CC2)cc(OC)c1C` [Compound 149], 299 nM.
To `COc1cc([C@@H](O)[C@H](Cn2cc3cccc(C(=O)O)c3n2)OC2CCCC2)cc(OC)c1OC` [Compound 147] belongs 126 nM; to `COc1cc([C@@H](O)[C@H](Cn2cc3nc(C)cc(C(=O)O)c3n2)OC2CCCC2)cc(OC)c1C` [Compound 194], 26.9 nM; to `COc1cc([C@@H](O)[C@H](Cc2nc3c(C(=O)O)cccc3n2C)OC2CCCC2)cc(OC)c1C` [Compound 175], > 10000 nM.
The figure for `COc1cc([C@@H](O)[C@H](Cn2cc3nccc(C(=O)O)c3n2)OC2CCCC2)ccc1C` [Compound 191] is 662 nM.
On to `CCCc1cc(C(=O)O)c2nn(C[C@H](OC3CCCC3)[C@H](O)c3cc(OC)c(C)c(OC)c3)cc2n1` [Compound 219], for which the IC50 turned out to be 20.4 nM.
To `COc1cc([C@@H](O)[C@H](Cn2cc3cccc(C#N)c3n2)OC2CCCC2)cc(OC)c1C` [Compound 183] belongs > 10000 nM; to `COc1cc([C@@H](O)[C@H](Cn2cc3nccc(C(=O)O)c3n2)OC2CCCC2)cc(OC)c1C1CC1` [Compound 205], 507 nM.
To `COc1cc([C@@H](O)[C@H](Cc2nc3cccc(C(=O)O)n3n2)OC2CCCC2)cc(OC)c1C` [Compound 167] belongs > 10000 nM; to `COc1cc([C@@H](O)[C@H](Cn2cc3nc(C#N)cc(C(=O)O)c3n2)OC2CCCC2)cc(OC)c1C` [Compound 212], 10.8 nM; to `CCc1cc(C(=O)O)n2nc(C[C@H](OC3CCCC3)[C@H](O)c3cc(OC)c(C)c(OC)c3)cc2c1` [Compound 251], 37.3 nM.
Turning to `COc1c(C)ccc([C@@H](O)[C@H](Cn2cc3nccc(C(=O)O)c3n2)OC2CCCC2)c1C` [Compound 192], the IC50 was 1120 nM.
For the compound `COc1cc([C@@H](O)[C@H](Cn2cc3c(=O)n(C)cc(C(=O)O)c3n2)OC2CCCC2)cc(OC)c1C` [Compound 174], the concentration for half-maximal inhibition (IC50) came to 103 nM.
The figure for `CCCc1sc(C[C@H](OC2CCCC2)[C@H](O)c2cc(OC)c(C)c(OC)c2)nc1[C@H](C)C(=O)O` [Compound 260] is 28 nM.
The figure for `COc1cc([C@@H](O)[C@H](Cn2cc3c(C#N)ccc(C(=O)O)c3n2)OC2CCCC2)cc(OC)c1C` [Compound 182] is 79.2 nM; for `COC(=O)Cc1nc(CC(OC2CCCC2)[C@H](O)c2cc(OC)c(C)c(OC)c2)sc1C(=O)O` (stereo partly drawn) [Compound 210] it is 7810 nM.
Regarding `Cc1ccc([C@@H](O)[C@H](Cn2cc3cccc(C(=O)O)c3n2)OC2CCCC2)cc1OC(F)(F)F` [Compound 150], the IC50 was 146 nM.
To `COc1cc([C@@H](O)[C@H](Cn2cc3nccc(C(=O)O)c3n2)OCCc2ccc(F)cc2)cc(OC)c1C` [Compound 187] belongs 132 nM.
To `COCc1sc(C[C@H](OC2CCCC2)[C@H](O)c2cc(OC)c(C)c(OC)c2)nc1CC(=O)O` [Compound 249] belongs 60.2 nM.
To `COc1cc(C(=O)O)c2nc(C[C@@H](OC3CCCC3)[C@@H](O)c3cc(OC)c(C)c(OC)c3)sc2c1` [Compound 284] belongs > 10000 nM; to `CCOc1cc([C@@H](O)[C@H](Cc2nc3c(C(=O)O)cccc3s2)OCC(C)C)ccc1C(C)=O` [Compound 258], 449 nM.
For the compound `COc1cc([C@@H](O)[C@H](Cc2nc3c(C(=O)O)cc(F)cc3s2)OCC2CCCC2)cc(OC)c1C` [Compound 263], the IC50 was 10.1 nM.
The figure for `COc1cc([C@@H](O)[C@H](Cn2cc3cc(C#N)cc(C(=O)O)c3n2)OC2CCCC2)cc(OC)c1C` [Compound 165] is 6.28 nM.
